Data set [1] relates to Rattus norvegicus. Nature of the data set: Antihyperlipidemic activity in triton WR-1339 induced Charles Foster rat hyperlipidemia model assessed as inhibition of total cholesterol level in serum at 50 mg/kg, po administered simultaneously with triton WR-1339 after 18 hrs by enzymatic method relative to control. It counts as functional.
Data set [2] concerns the target T1, 3-hydroxy-3-methylglutaryl-coenzyme A reductase (Homo sapiens) (UniProt P04035).
T1 sequence (whole entry): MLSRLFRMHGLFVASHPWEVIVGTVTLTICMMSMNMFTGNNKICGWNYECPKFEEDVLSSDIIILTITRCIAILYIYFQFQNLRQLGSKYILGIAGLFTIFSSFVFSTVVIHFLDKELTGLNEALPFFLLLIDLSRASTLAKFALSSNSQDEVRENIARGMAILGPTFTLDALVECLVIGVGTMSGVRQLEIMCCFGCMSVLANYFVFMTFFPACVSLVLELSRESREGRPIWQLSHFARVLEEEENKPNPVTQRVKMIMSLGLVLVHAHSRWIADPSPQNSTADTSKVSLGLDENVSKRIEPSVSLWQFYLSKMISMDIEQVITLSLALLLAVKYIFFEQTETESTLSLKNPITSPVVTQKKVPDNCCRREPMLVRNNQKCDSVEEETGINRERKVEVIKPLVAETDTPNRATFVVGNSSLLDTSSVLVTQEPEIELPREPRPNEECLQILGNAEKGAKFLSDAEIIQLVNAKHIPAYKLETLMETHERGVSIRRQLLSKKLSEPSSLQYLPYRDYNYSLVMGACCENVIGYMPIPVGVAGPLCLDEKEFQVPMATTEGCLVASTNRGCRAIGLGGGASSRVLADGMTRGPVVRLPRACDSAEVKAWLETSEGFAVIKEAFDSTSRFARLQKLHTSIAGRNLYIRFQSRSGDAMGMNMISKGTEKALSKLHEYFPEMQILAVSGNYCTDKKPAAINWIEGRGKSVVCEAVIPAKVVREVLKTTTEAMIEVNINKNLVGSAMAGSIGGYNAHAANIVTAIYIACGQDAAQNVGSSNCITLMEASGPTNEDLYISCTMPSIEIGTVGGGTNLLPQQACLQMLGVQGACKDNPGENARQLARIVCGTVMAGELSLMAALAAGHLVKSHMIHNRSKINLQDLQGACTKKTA
Nature of the data set: Inhibition of human HMG-CoA reductase catalytic domain at 5 uM using HMG-CoA as substrate in presence of NADPH by colorimetric method relative to control.

The species entered for data set [3] is Rattus norvegicus. In words: animal or person. It counts as functional. The conditions noted are these: Charles Foster, po, 18 h.
Description: Antihyperlipidemic activity in triton WR-1339 induced Charles Foster rat hyperlipidemia model assessed as inhibition of phospholipid level in serum at 100 mg/kg, po administered simultaneously with triton WR-1339 after 18 hrs by enzymatic method relative to control
Data set [4] concerns Rattus norvegicus. In words: Hypolipidemic activity in HFD-induced Charles Foster rat chronic hyperlipidemia model assessed as reduction in serum total cholesterol level at 100 mg/kg administered via oral gavage for 30 days simultaneously with high fat diet by enzymatic method relative to HFD treated vehicle. The format is functional. The conditions noted are these: 720 h.
Data set [5] relates to Rattus norvegicus. Nature of the data set: Hypolipidemic activity in HFD-induced Charles Foster rat chronic hyperlipidemia model assessed as reduction in liver total cholesterol level at 100 mg/kg administered via oral gavage for 30 days simultaneously with high fat diet by enzymatic method relative to HFD treated vehicle. The format is functional. The conditions noted are these: 720 h.

Data set [6] in a line: Cmax in Sprague-Dawley rat at 100 mg/kg, po administered as single dose by LC-MS/MS analysis. Further details: dose 100 mg/kg, route oral. The conditions noted are these: in vivo. The format is ADME, organism-based.
Data set [7] in a line: Apparent oral clearance in Sprague-Dawley rat at 100 mg/kg administered as single dose by LC-MS/MS analysis. It counts as ADME, organism-based. Particulars: in vivo.

Turning to `COc1ccc(-c2cc3cc(C(c4c[nH]c5ccccc45)c4c[nH]c5ccccc45)cc(C(C)(C)C)c3oc2=O)cc1OC`, the inhibition in vivo at 50 mg/kg in data set [1] was determined as 20%. The inhibition in data set [2] came to 32%. Also, the inhibition in vivo at 100 mg/kg in data set [3] turned out to be 33%; in data set [4], 24%; in data set [5], 27%. Moreover, the peak concentration (Cmax) in data set [6] came out at 79 ng/mL. The CL/F in data set [7] was 241 L/h/kg.

(Values after ChEMBL document CHEMBL3997763 (Medchemcomm, 2016).)
